Legend:
rat = assay: Electromyogram (EMG) of the myoelectric response caused by drug solution administration into the plantar subcutaneous of anesthetized rats; type: in vivo
Text: In the embodiment illustrated in FIG. 1, a subject (experimental animal) used for assessment of pain caused by administration of a drug solution is a rat 12. Conditions of the rat 12 that can be used are, for example, an age in range of 7 to 10 weeks old, a body weight in a range of 200 to 400 g, and a strain that is SD (other strains are also possible). An acclimation and quarantine period of the rat 12 is preferably five days or longer. An anesthesia mask 13 is attached to the rat 12, and inhalation anesthesia is performed.
In order to measure the pain caused by the administration of the drug solution, a myoelectric potential of the semitendinosus muscle 12b of the thigh of the rat 12 is recorded. At the time of recording the myoelectric potential, a needle-shaped measurement electrode 24 (for example, a bipolar hook electrode) is punctured under the semitendinosus muscle 12b to be placed, and a reference electrode 26 is pasted to a thoracic skin surface 12c. Potential signals from the measurement electrode 24 and the reference electrode 26 are amplified by a high-sensitivity bioelectric amplifier 28 and transmitted to a data collection device 30.
A rat 12 serving as a subject is prepared (a preparation step), and the rat 12 is subjected to inhalation anesthesia (an anesthesia step). Examples of an applicable inhalation anesthetic include isoflurane. […] Incidentally, it is preferable to heat the rat 12 with a warming mat to keep the body temperature constant during the anesthesia.
Next, the measurement electrode 24 is placed in the semitendinosus muscle 12b of the anesthetized rat 12 (a measurement electrode placement step). […] At this time, the thigh skin at a position where contraction has been recognized is incised by about 1 cm to expose the semitendinosus muscle 12b, and then, the measurement electrode 24 is inserted.
Thereafter, the anesthetic depth is kept constant. […]
Once such a myoelectric potential waveform is obtained, the measurement step is performed in order to assess (quantify) the pain caused by the drug solution administration. […]

human = conditions: cited from earlier work

Row | Structure (SMILES) | pain (EMG intensity obtained from myoelectric response) (rat; plurality of different molar concentrations (FIG. 7B)) | magnitude of pain (VAS) (human; plurality of different molar concentrations (FIG. 7A, created from source graph)) | magnitude of pain (EMG intensity) (rat; 10% NaCl, plurality of different administration rates (FIG. 9B)) | pain (EMG intensity obtained from myoelectric response) (rat; NaCl concentration 5% or more (FIG. 6B)) | magnitude of pain (VAS) over time (human; 5% NaCl injected (FIG. 6A))
1 | N[C@@H](CCC(=O)O)C(=O)O [glutamic acid] | the pain increases as the molar concentration of glutamic acid increases | the pain increases as the molar concentration of glutamic acid increases |  |  | 
2 | [Cl-].[Na+] [NaCl] |  |  | varies depending on a difference in the administration rate | significantly increases | great pain

From patent US11284835B2, “Method for assessing pain caused by administration of drug solution, and method for selecting drug solution administration” (TERUMO KABUSHIKI KAISHA, priority 2016, dated 2022)
